Calls of active or inactive are those of the source. The rule behind the calls is not given here.
Experiments:
Type in all cases: functional, organism-based
Bacillus subtilis = assay: Antimicrobial activity against Bacillus subtilis RSC1 at <12.5 ug/disk after 24 hrs
Phytophthora cinnamomi = assay: Antimicrobial activity against Phytophthora cinnamomi RSC290 at 6.25 ug/disk after 18 to 24 hrs
Escherichia coli = assay: Antimicrobial activity against Escherichia coli RSC2 at 6.25 ug/disk after 18 to 24 hrs

With `C=C(C(=O)OC[C@H]1O[C@@H](Oc2ccc(O)cc2)[C@H](O)[C@@H](O)[C@@H]1O)[C@@H](O)CO` the Activity (Bacillus subtilis) was “inactive”, the Activity (Phytophthora cinnamomi) was “Active” and the Activity (Escherichia coli) was “Active”.

Reference: ChEMBL document CHEMBL1146416, “A new glycoside antimicrobial agent from Persoonia linearis x pinifolia” (J Nat Prod, 1997)
